Assay results reported in patent publication US3994882A, “Nitrofuran derivatives, process for the preparation thereof and compositions containing same as active ingredient” (Kabushiki Kaisha Ueno Seiyaku Oyo Kenkyujo, priority 1974, dated 1976).
Converted amounts (≈) assume the structure as drawn. Like-named read-outs stand apart in the source and are kept apart here.

Tests used:
[1] = system: Bordetella bronchiseptica; assay: Minimum growth inhibiting concentration, microorganisms that infect domestic animals (Table 2); type: cell-based; details: 4 strains, Heart infusion Agar, 48 hours
Procedure: (§1) The minimum growth inhibiting concentrations were measured under identical conditions as in the case of Table 1, except that culture media indicated above were used and, in the case of that asterisked, the culture was carried out for 5 days, while the others were cultivated for 48 hours.

[2] = system: Erysiperothrix rhusiopatiae Agata; assay: as above; type: cell-based; details: TSB-Agar 10% rabbit blood added, 48 hours
Procedure: as §1

Escherichia coli = assay: as above; type: cell-based; details: 36 strains, TSB-Agar, 48 hours
Procedure: as §1

Hemophilus galinalum = assay: as above; type: cell-based; details: 2 strains, TSB-Agar 10% rabbit blood added, 48 hours
Procedure: as §1

Mycolasma galli-septicum = assay: as above; type: cell-based; details: 120 h, 6 strains, Hofstad, 5 days
Procedure: as §1

[3] = system: Pasteurella multocida Kobe-5; assay: as above; type: cell-based; details: KOBE5, TSB-Agar 10% rabbit blood added, 48 hours
Procedure: as §1

Salmonella purollum = assay: as above; type: cell-based; details: 42 strains, TSB-Agar, 48 hours
Procedure: as §1

Staphylococcus aureus = assay: as above; type: cell-based; details: 15 strains, TSB-agar, 48 hours
Procedure: as §1

Escherichia coli K-74 = assay: Curative action in infected mice (Table 4); type: in vivo; details: K74, 168 h, mice infected abdominally, oral in 5% gum arabic, observation one week
Procedure: (§2) Next, in Table 4 are shown the curative actions (ED50 mg/Kg body wt.) and acute toxicities (LD50 mg/kg body wt.) of the typical nitrofuran derivatives of the present invention when used with infected mice.
(§3) Note.- The numerical values in the table denote the amounts per unit body
(§4) weight of the nitrofuran derivatives required for cure when the experimen
(§5) was carried out using mice of body weight of about 20 grams and injecting
(§6) thereinto abdominally the microorganism-containing solutions in amounts o
(§7) 0.2 ml (the microorganism-containing solutions used being those in the
(§8) cases of test microorganisms 1, 3 and 4 in which the microorganism cultur
(§9) liquids were diluted 10^5, 5 and 10^2 times, respectively, and in
(§10) the case of test microorganism 2 that which was concentrated 2 times),
(§11) after which the nitrofuran derivatives suspended in 5% gum arabic were
(§12) forcedly administered orally followed by observation for one week.

[4] = system: Salmonella typhimium K-52; assay: Curative action in infected mice (Table 4); type: in vivo; details: K52, 168 h, mice infected abdominally, oral in 5% gum arabic, observation one week
Procedure: as §2, §3, §4, §5, §6, §7, §8, §9, §10, §11, §12

[5] = system: Staphylococcus aureus 72r; assay: Curative action in infected mice (Table 4); type: in vivo; details: 168 h, mice infected abdominally, oral in 5% gum arabic, observation one week
Procedure: as §2, §3, §4, §5, §6, §7, §8, §9, §10, §11, §12

[6] = system: Streptococcus hemolyticus A 089; assay: Curative action in infected mice (Table 4); type: in vivo; details: Streptococcus pyogenes, A089, 168 h, mice infected abdominally, oral in 5% gum arabic, observation one week
Procedure: as §2, §3, §4, §5, §6, §7, §8, §9, §10, §11, §12

[7] = system: Erysiperothrix rhusiopatiae Agata; assay: Cure of mice infected with Erysiperothrix rhusiopatiae (Table 5); type: in vivo; details: Mus musculus, 168 h, observed 7 days, read-out: ED50 when used with Erysiperothrix rhusiopatiae
Procedure: Mice of body weight about 20 grams were used, and 0.2 ml of a culture liquid obtained by cultivating Erysiperothrix rhusiopatiae Agata for 24 hours at 37° C. in a 10% calf serum TSB added culture medium (amount of inoculated germs 4.0 × 10^7) was injected abdominally.

Compound	MIC [1]	MIC [2]	MIC (Escherichia coli)	MIC (Hemophilus galinalum)	MIC (Mycolasma galli-septicum)	MIC [3]	MIC (Salmonella purollum)	MIC (Staphylococcus aureus)	ED50 (Escherichia coli K-74)	ED50 [4]	ED50 [5]	ED50 [6]	ED50 ([7]; oral administration)	ED50 ([7]; sc, subcutaneous injection)
O=C(NCCO)c1ccc(C=Cc2ccc([N+](=O)[O-])o2)cc1 [Example 1, 2-Para-[2'-(5"-nitro-2"-furyl)-vinyl]-benzoylaminoethanol]	25 µg/mL (≈ 82.7 µM)	0.07 µg/mL (≈ 0.232 µM)	0.5 to 25 µg/mL (≈ 1.65 to 82.7 µM)	0.04 to 1.5 µg/mL (≈ 0.132 to 4.96 µM)	0.1 µg/mL (≈ 0.331 µM)	0.15 µg/mL (≈ 0.496 µM)	1.6 to 12.5 µg/mL (≈ 5.29 to 41.4 µM)	0.2 to 25 µg/mL (≈ 0.662 to 82.7 µM)	14 mg/kg	75 mg/kg	14 mg/kg	8 mg/kg	21.8 mg/kg	50 mg/kg
O=C(NCC(O)CO)c1ccc(C=Cc2ccc([N+](=O)[O-])o2)cc1 (stereo not shown) [Example 9, 3-Para-[2'-(5"-nitro-2"-furyl)-vinyl]-benzoylamino-1,2-propanediol]	25 µg/mL (≈ 75.2 µM)	0.15 µg/mL (≈ 0.451 µM)	0.5 to 12.5 µg/mL (≈ 1.5 to 37.6 µM)	0.1 to 1.5 µg/mL (≈ 0.301 to 4.51 µM)	0.2 µg/mL (≈ 0.602 µM)	0.08 µg/mL (≈ 0.241 µM)	1.6 to 25 µg/mL (≈ 4.81 to 75.2 µM)	0.2 to 25 µg/mL (≈ 0.602 to 75.2 µM)	10 mg/kg	100 mg/kg	21 mg/kg	15 mg/kg	25.5 mg/kg	42.1 mg/kg
